# According to patent publication US20250091989A1, “SMALL MOLECULE PROTEIN SYNTHESIS MODULATORS” (Interdict Bio, Inc., priority 2023, published 2025):
# How the values were obtained:
# Format in all cases: biochemical
# Settings in all cases: HeLa S3 lysate, sfGFP/mCherry ratio, 2 hrs at 30° C.
# [1] = tested on: MYC; assay: In vitro transcription-translation (IVTT) reporter assay, MYC test sequence
# Method in brief: (§1)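 Coupled transcription-translation in HeLa S3 lysate with reporter plasmids encoding mCherry-P2A-3×FLAG-TEST-sfGFP behind an EMCV IRES. Compounds were half-log titrated (30 μM-0.1 μM in DMSO dilution plate) into master mix, then DNA was added. Reactions ran 2 hrs at 30° C, were PBS-quenched and read for fluorescence.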
# [2] = tested on: CCND1; assay: In vitro transcription-translation (IVTT) reporter assay, CCND1 test sequence
# Excerpt: All reporter constructs have been cloned into the pT7CFE1-CHis plasmid (ThermoFisher #88860) using Gibson assembly procedures (NEB #E2611L). The parental pT7CFE1-CHis plasmid contains an EMCV IRES at the 5′UTR for translation initiation, a multiple-cloning site (MCS) for gene insertion, an optional C-terminal His-epitope tag, and polyA sequence in the 3′UTR to regulate mRNA stability. All reporters are designed to be inserted at the MCS to include a red fluorescent protein (mCherry), P2A self-cleaving peptide which releases the preceding mCherry protein product, and a fusion open reading frame containing a 3×FLAG epitope, a peptide sequence of interest (TEST), and green fluorescent protein (sfGFP).
# Construct Plasmid Preparation: All plasmids are isolated from MACH1 cells (ThermoFisher) grown overnight in ampicillin-containing luria broth, and purified using ZymoPure Express Plasmid Midiprep Kit (Zymo Research). Constructs are sequenced verified and diluted to a working concentration of 110 ng/μL.
# HeLa S3 Lysate Preparation: HeLa S3 cell pellets are acquired from Ipracell/Ipratech (Belgium) and shipped as 4 mL frozen cell pellets on dry ice for storage at −80° C. until use. The procedure for lysate preparation is as follows. Prepare 1× Lysis Buffer, cold and stored on ice:
# Each preparation takes 8 cell pellets (4 ml packed volume each, approximately 1.0×10^9 cells per pellet). Thaw cell pellets from −80° C. on ice for 90 mins. Lay pellets horizontally on top of the ice and rotate every 30 mins to ensure even thawing. Once thawed, add 4 mL of cold lysis buffer to each pellet, and using a serological pipet, gently pipet up and down to break up clumps. Incubate resuspended cells in ice for an additional 30 mins (plunged into ice). During 30 min incubation, rinse and RNase-zap (Ambion) glass dounces (use loose pestle “A”), gently dry and place on ice until needed. Prepare RNase-free Eppendorf tubes for spinning and for batch storage. Add batch labels to 1.5-1.7 mL RNase-free microcentrifuge tubes (labeling scheme below). Each batch will have an extra 1.5-1.7 mL RNase-free microcentrifuge tube for 40 μL of lysate, label the top of this tube (labeling scheme below). After 30 min incubation, transfer all 8 mL of cell pellet to dounce. Cell lysis is complete after douncing 100 times. Aliquot cell lysis into 1.5-1.7 mL temporary-microcentrifuge tubes. Place tubes in centrifuge with “fins” out, and spin at 1,200 xg for 5 mins. After the first spin use a 1 mL pipet to resuspend each tube and repeat spin. This acts as an additional lysis step, is more vigorous and increases lysate yield. During second spin get liquid N2 and a fresh conical tube on ice.
# After spin is complete, transfer supernatant (lysate) from microcentrifuge tubes into the 50 mL conical tube and keep on ice. Repeat steps 10-14 for all other cell pellets until completed. Once all cell lysate has been transferred to the 50 mL conical tube pipet to mix so the solution is homogenous. Transfer 1 mL of lysate into batch-labeled microcentrifuge tubes and flash freeze in liquid nitrogen. Be sure to pipet up and down to mix throughout transfer step. Place all tubes in the […] for long-term storage.
# In vitro transcription-translation assay setup: Each assay includes a master mix containing lysate and shared components, a 96-well plate containing compound titrations for testing, a 96-well DNA plate with reporter constructs to be tested, 96-well skirted PCR plates, and 96-well flat-bottom, black, fluorescent assay plates. […]
# [3] = tested on: ALK; assay: In vitro transcription-translation (IVTT) reporter assay, ALK test sequence
# Method in brief: as §1
# [4] = tested on: KRAS G12D; assay: In vitro transcription-translation (IVTT) reporter assay, KRAS G12D test sequence
# Method in brief: as §1
SMILES,IC50 [1] [µM],IC50 [2] [µM],IC50 [3] [µM],IC50 [4] [µM]
"COc1ccc(C[C@H]2NC[C@H](O)[C@H]2OC(=O)C2CCC2)cc1 [V186921, (2R,3S,4S)-4-hydroxy-2-[(4-methoxyphenyl)methyl]pyrrolidin-3-ylcyclobutanecarboxylate; trifluoroacetic acid]",< 10,< 10,–,< 10
"COc1ccc(C[C@H]2NC[C@H](O)[C@H]2OC(=O)CN2CC(F)(F)C2)cc1 [V187045, (2R,3S,4S)-4-hydroxy-2-[(4-methoxyphenyl)methyl]pyrrolidin-3-yl 2-(3,3-difluoroazetidin-1-yl)acetate; trifluoroacetic acid]",–,< 10,< 10,–
"COc1ccc(C[C@H]2NC[C@H](O)[C@H]2OC(=O)Cc2ccc3ccccc3c2)cc1 [V187123, (2R,3S,4S)-4-hydroxy-2-[(4-methoxyphenyl)methyl]pyrrolidin-3-yl 2-(naphthalen-2-yl)acetate; trifluoroacetic acid]",10 to 20,–,< 10,> 30
"COc1ccc(C[C@H]2NC[C@H](O)[C@H]2OC(=O)Cc2ccc(OC(F)(F)F)cc2)cc1 [V187159, (2R,3S,4S)-4-hydroxy-2-[(4-methoxyphenyl)methyl]pyrrolidin-3-yl 2-[4-(trifluoromethoxy)phenyl]acetate]",10 to 20,–,10 to 20,> 30
"COc1ccc(C[C@H]2NC[C@H](O)[C@H]2OC(=O)C2CC(F)C2)cc1 (stereo partly drawn) [V187166, (2R,3S,4S)-4-hydroxy-2-[(4-methoxyphenyl)methyl]pyrrolidin-3-yl 3-fluorocyclobutane-1-carboxylate; trifluoroacetic acid]",< 10,–,< 10,< 10
"COc1ccc(C[C@H]2NC[C@H](O)[C@H]2OC(=O)Cc2noc(C)n2)cc1 [V187175, (2R,3S,4S)-4-hydroxy-2-[(4-methoxyphenyl)methyl]pyrrolidin-3-yl 2-(5-methyl-1,2,4-oxadiazol-3-yl)acetate; trifluoroacetic acid]",< 10,–,< 10,< 10
"COc1ccc(C[C@H]2NC[C@H](O)[C@H]2OC(=O)CC[C@@H]2NC(=O)C3(CNC3)NC2=O)cc1 [V187324, (2R,3S,4S)-4-hydroxy-2-[(4-methoxyphenyl)methyl]pyrrolidin-3-yl 3-[(7S)-6,9-dioxo-2,5,8-triazaspiro[3.5]nonan-7-yl]propanoate]",20 to 30,–,> 30,> 30
"COc1ccc(C[C@H]2NC[C@H](O)[C@H]2OC(=O)Cc2nnn[nH]2)cc1 [V187533, (2R,3S,4S)-4-hydroxy-2-[(4-methoxyphenyl)methyl]pyrrolidin-3-yl 2-(1H−1,2,3,4-tetrazol-5-yl)acetate; trifluoroacetic acid]",10 to 20,–,< 10,> 30
COc1ccc(C[C@H]2NC[C@H](O)[C@H]2OC(=O)C[C@H]2CCNC2)cc1 [V187689],< 10,–,< 10,< 10
"COc1ccc(C[C@H]2NC[C@H](O)[C@H]2OC(=O)CCCN2CCNCC2)cc1 [V187694, (2R,3S,4S)-4-hydroxy-2-[(4-methoxyphenyl)methyl]pyrrolidin-3-yl 4-(piperazin-1-yl)butanoate]",< 10,–,< 10,10 to 20
COc1ccc(C[C@H]2NC[C@H](O)[C@H]2OC(=O)COCc2nnc(C)s2)cc1 [V187720],< 10,–,< 10,< 10
CC(=O)O[C@@H]1[C@@H](O)CN[C@@H]1Cc1ccc(-c2cn(-c3ccccc3)nn2)cc1 [V187731],< 10,–,< 10,< 10
"CC(=O)O[C@@H]1[C@@H](O)CN[C@@H]1Cc1ccc(-c2cn(-c3ccnc(N)n3)nn2)cc1 [V188057, (2R,3S,4S)-2-({4-[1-(2-aminopyrimidin-4-yl)-1,2,3-triazol-4-yl]phenyl}methyl)-4-hydroxypyrrolidin-3-yl acetate]",< 10,< 10,–,–

# Further lines, results first:
IC50 [1] [µM],IC50 [2] [µM],IC50 [3] [µM],IC50 [4] [µM],SMILES
< 10,< 10,< 10,< 10,COc1ccc(C[C@H]2NC[C@H](O)[C@H]2OC(=O)CCCCCO)cc1 [V186777]
< 10,> 30,< 10,> 30,"COc1ccc(C[C@H]2NC[C@H](O)[C@H]2OC(=O)CC2NC(=O)CNC2=O)cc1 (stereo partly drawn) [V186862, (2R,3S,4S)-4-hydroxy-2-[(4-methoxyphenyl)methyl]pyrrolidin-3-yl 2-(3,6-dioxopiperazin-2-yl)acetate]"
< 10,< 10,< 10,–,COc1ccc(C[C@H]2NC[C@H](O)[C@H]2OC(=O)Cc2ccncc2)cc1 [V187056]
< 10,< 10,< 10,< 10,"COc1ccc(C[C@H]2NC[C@H](O)[C@H]2OC(=O)Cc2ccccn2)cc1 [V187082, (2R,3S,4S)-4-hydroxy-2-[(4-methoxyphenyl)methyl]pyrrolidin-3-yl 2-(pyridin-2-yl)acetate]"
< 10,–,< 10,< 10,"COc1ccc(C[C@H]2NC[C@H](O)[C@H]2OC(=O)CCC(F)(F)F)cc1 [V187163, (2R,3S,4S)-4-hydroxy-2-[(4-methoxyphenyl)methyl]pyrrolidin-3-yl 4,4,4-trifluorobutanoate; trifluoroacetic acid]"
< 10,< 10,< 10,–,COCCC(=O)OC1[C@@H](O)CN[C@@H]1Cc1ccc(OC)cc1 (stereo partly shown) [V187168]
< 10,< 10,< 10,–,"COc1ccc(C[C@H]2NC[C@H](O)[C@H]2OC(=O)CNC2CC2)cc1 [V187170, (2R,3S,4S)-4-hydroxy-2-[(4-methoxyphenyl)methyl]pyrrolidin-3-yl 2-(cyclopropylamino)acetate]"
< 10,–,< 10,< 10,"COc1ccc(C[C@H]2NC[C@H](O)[C@H]2OC(=O)CCc2cscn2)cc1 [V187173, (2R,3S,4S)-4-hydroxy-2-[(4-methoxyphenyl)methyl]pyrrolidin-3-yl 3-(1,3-thiazol-4-yl)propanoate]"
< 10,< 10,–,< 10,"COc1ccc(C[C@H]2NC[C@H](O)[C@H]2OC(=O)CCc2cocn2)cc1 [V187176, (2R,3S,4S)-4-hydroxy-2-[(4-methoxyphenyl)methyl]pyrrolidin-3-yl 3-(1,3-oxazol-4-yl)propanoate; trifluoroacetic acid]"
< 10,–,< 10,< 10,COc1ccc(C[C@H]2NC[C@H](O)C2OC(=O)COCc2ccc3nonc3c2)cc1 (stereo partly shown) [V187179]
< 10,–,< 10,< 10,"COCCOCCOCC(=O)O[C@@H]1[C@@H](O)CN[C@@H]1Cc1ccc(OC)cc1 [V187184, (2R,3S,4S)-4-hydroxy-2-[(4-methoxyphenyl)methyl]pyrrolidin-3-yl 2-[2-(2-methoxyethoxy)ethoxy]acetate]"
< 10,–,< 10,< 10,"COc1ccc(C[C@H]2NC[C@H](O)[C@H]2OC(=O)COCc2ccon2)cc1 [V187368, (2R,3S,4S)-4-hydroxy-2-[(4-methoxyphenyl)methyl]pyrrolidin-3-yl 2-(1,2-oxazol-3-ylmethoxy)acetate]"
